Experimental data from ChEMBL document CHEMBL3864170, “Pyrazole Inhibitors of GluN2B NMDA Receptor Subunit” (ACS Med Chem Lett, 2016).

Assays:
[1] = biological target: Glutamate receptor ionotropic, NMDA 2B (Rattus norvegicus, UniProt Q00960); assay: Antagonist activity at Wistar rat brain NR2B assessed as inhibition of glutamate/glycine-induced Ca2+ flux measured after 90 secs
hERG (KCNH2) = hERG (KCNH2) (Homo sapiens, UniProt Q12809); assay: Displacement of [3H]-dofetilide from human ERG expressed in HEK293 cell membranes after 90 mins by scintillation counting; settings: membranes of HEK293 cells that express human ERG, probe [3H]-dofetilide
hERG (KCNH2), sequence (Q12809 whole entry): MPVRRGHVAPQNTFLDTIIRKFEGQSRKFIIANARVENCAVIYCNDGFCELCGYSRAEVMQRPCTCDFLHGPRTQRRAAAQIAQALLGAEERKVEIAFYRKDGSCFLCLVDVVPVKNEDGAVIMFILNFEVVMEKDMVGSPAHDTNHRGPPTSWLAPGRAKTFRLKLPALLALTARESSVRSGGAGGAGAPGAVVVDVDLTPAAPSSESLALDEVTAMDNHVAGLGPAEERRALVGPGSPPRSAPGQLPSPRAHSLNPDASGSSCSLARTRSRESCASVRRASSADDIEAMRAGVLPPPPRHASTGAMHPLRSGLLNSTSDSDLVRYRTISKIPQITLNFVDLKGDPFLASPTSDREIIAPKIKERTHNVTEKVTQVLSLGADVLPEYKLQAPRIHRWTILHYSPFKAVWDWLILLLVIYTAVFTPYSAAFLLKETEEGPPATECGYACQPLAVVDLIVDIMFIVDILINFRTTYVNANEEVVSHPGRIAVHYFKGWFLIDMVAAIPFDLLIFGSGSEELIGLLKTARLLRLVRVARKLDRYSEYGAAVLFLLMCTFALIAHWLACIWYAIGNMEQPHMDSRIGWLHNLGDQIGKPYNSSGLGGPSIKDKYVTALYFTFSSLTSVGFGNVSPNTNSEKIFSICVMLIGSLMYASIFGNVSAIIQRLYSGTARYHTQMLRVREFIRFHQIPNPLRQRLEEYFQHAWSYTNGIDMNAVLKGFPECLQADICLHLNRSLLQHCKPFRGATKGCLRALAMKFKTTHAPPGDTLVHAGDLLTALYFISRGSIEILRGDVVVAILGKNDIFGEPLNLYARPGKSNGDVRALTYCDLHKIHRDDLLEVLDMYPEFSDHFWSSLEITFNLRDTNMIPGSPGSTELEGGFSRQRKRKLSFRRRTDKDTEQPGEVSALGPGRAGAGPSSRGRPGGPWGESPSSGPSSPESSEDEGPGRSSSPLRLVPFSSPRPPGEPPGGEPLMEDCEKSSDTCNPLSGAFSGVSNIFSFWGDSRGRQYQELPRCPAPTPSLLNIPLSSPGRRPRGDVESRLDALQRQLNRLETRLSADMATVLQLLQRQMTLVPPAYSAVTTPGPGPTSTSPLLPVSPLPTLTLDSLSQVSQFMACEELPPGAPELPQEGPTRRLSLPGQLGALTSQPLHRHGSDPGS

[2] = Antidepressive activity in po dosed NMRI mouse assessed as reduction in duration of immobility administered 30 mins prior to the test measured on last 4 mins of the 10 mins test by force swim test; format: functional, organism-based

Glutamate receptor ionotropic, NMDA 2B, sequence (Q00960 whole entry): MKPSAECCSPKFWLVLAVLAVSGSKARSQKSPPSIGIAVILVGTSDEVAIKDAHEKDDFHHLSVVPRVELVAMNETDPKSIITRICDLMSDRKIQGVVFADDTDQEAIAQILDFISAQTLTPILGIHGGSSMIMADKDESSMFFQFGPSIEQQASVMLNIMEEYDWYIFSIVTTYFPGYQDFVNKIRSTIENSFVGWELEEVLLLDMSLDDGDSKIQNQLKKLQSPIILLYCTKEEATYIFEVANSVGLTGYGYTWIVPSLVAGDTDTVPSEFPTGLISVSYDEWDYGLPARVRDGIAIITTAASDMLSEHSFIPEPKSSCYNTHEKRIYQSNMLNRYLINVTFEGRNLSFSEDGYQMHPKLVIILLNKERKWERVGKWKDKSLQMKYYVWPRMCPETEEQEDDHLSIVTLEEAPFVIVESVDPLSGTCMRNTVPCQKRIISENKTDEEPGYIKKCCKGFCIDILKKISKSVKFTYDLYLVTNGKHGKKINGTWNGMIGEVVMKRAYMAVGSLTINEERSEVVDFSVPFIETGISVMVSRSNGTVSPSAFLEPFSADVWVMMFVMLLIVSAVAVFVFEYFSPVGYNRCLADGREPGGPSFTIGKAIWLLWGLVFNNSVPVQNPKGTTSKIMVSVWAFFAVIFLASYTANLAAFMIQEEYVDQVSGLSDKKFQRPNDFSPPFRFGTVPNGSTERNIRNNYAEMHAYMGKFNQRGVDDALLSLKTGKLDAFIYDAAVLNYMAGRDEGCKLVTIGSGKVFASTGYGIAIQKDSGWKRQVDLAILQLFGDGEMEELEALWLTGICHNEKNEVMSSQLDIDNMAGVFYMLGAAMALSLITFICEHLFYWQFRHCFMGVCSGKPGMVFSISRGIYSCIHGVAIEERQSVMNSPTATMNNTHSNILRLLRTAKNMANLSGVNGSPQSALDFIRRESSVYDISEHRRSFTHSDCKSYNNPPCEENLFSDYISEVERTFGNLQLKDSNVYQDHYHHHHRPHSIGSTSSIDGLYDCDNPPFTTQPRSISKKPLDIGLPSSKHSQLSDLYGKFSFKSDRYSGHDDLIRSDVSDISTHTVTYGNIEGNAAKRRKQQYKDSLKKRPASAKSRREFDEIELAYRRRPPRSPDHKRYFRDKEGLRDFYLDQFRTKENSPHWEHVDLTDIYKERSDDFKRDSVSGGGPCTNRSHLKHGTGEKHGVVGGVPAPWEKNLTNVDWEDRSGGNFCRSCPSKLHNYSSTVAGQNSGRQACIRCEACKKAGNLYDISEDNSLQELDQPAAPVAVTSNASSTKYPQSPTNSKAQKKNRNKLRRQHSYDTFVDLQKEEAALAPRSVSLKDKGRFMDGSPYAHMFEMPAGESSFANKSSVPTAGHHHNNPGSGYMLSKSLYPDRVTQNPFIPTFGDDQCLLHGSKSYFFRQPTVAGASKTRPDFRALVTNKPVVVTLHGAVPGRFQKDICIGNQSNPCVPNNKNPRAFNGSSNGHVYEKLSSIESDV

Compound | IC50 [1] [nM] | IC50 at 90 min (hERG (KCNH2)) [nM] | MED [2] [mg/kg]
Cn1ccc(Cn2cc(-c3ccc(Cl)c(C(F)(F)F)c3)cn2)n1 | 1010 | 3470 | 
FC(F)Oc1cc(-c2cnn(Cc3cn[nH]c3)c2)ccc1Cl | 8.23 | 52600 | 
Fc1ccc(-c2cnn(Cc3cc[nH]n3)c2)cc1OC(F)F |  |  | 10
Cn1ccc(Cn2cc(-c3ccc(Cl)c(OC(F)F)c3)cn2)n1 |  |  | 30
